Assay results published in patent US20240425502A1, “BICYCLIC HETEROAROMATIC COMPOUNDS AND THEIR USE AS PEST CONTROL AGENTS” (PI INDUSTRIES LTD., priority 2021, published 2024).

Legend:
Type in all cases: in vivo
Bemisia tabaci = Bemisia tabaci leaf dip test (brinjal leaves, whitefly adults); conditions: foliar, 72 h after release, dead and moribund combined, compared to untreated control, read-out: percent mortality
Procedure: The leaf dip method was used for testing, wherein the required quantity of the compound was weighed and dissolved in a tube containing a solvent solution. The tube was put on a vortex at 2000 rpm for 90 min for proper mixing and then the mixture was diluted with a 0.01% Triton-X solution to the desired test concentration. Brinjal leaves were dipped in the compound solution for 10 seconds, shade dried for 20 min and then placed, with the abaxial side of the leaf up, on 4 ml of a 1% agar-agar solution in respective container caps. Known numbers of freshly emerged whitefly adults were collected, using a modified aspirator, and released into a perforated container in which the cap containing the treated leaf was placed. The containers were kept in a plant growth chamber at a temperature of 25° C. and a relative humidity of 70%. Observations on dead, moribund and alive adults were recorded 72 h after the release. Percent mortality was calculated by combining dead and moribund adults and comparing the result to the one of the untreated control. The compounds 32 53 58 79 80 81 82 84 87 88 89 94 95 96 101 102 103 104 105 106 107 108 109 112 113 114 115 116 117 118 119 120 123 124 125 126 127 130 135 138 139 140 144 145 147 150 154 156 158 159 164 167 168 169 170 171 188 189 191 198 199 200 201 202 206 207 208 209 210 213 216 223 224 225 227 228 231 232 233 234 235 236 238 242 243 244 246 and 247 recorded≥70 percent mortality @ 300 PPM.

Nilaparvata lugens = Nilaparvata lugens seedling dip test (paddy seedlings, third instar nymphs); conditions: 72 h after release, dead and moribund combined, compared to untreated control, read-out: percent mortality
Myzus persicae = Myzus persicae leaf dip test (capsicum leaves, third instar nymphs); conditions: foliar, 72 h after release, dead and moribund combined, compared to untreated control, read-out: percent mortality

Row | SMILES | mortality at 300 ppm (Bemisia tabaci) [%] | mortality at 300 ppm (Nilaparvata lugens) [%] | mortality at 300 ppm (Myzus persicae) [%]
1 | O=c1nc2n(Cc3cnc(Cl)nc3)cccc-2c(=O)n1-c1c(F)cccc1F [Compound 206, 8-((2-chloropyrimidin-5-yl)methyl)-3-(2,6-difluorophenyl)pyrido[2,3-d]pyrimidine-2,4(3H,8H)-dione] | ≥ 70 | ≥ 70 | –
2 | O=c1nc2n(Cc3cnc(Cl)s3)cccc-2c(=O)n1-c1cccc(OC(F)(F)F)c1 [Compound 150, 8-((2-chlorothiazol-5-yl)methyl)-3-(3-(trifluoromethoxy)phenyl)pyrido[2,3-d]pyrimidine-2,4(3H,8H)-dione] | ≥ 70 | ≥ 70 | ≥ 70
3 | O=c1nc2n(Cc3cnc(Cl)nc3)cccc-2c(=O)n1-c1ccccc1F [Compound 200, 8-((2-chloropyrimidin-5-yl)methyl)-3-(2-fluorophenyl)pyrido[2,3-d]pyrimidine-2,4(3H,8H)-dione] | ≥ 70 | ≥ 70 | –
4 | O=c1nc2n(Cc3cnc(Cl)s3)cccc-2c(=O)n1-c1ccc(Cl)cc1 [Compound 80, 3-(4-chlorophenyl)-8-((2-chlorothiazol-5-yl)methyl)pyrido[2,3-d]pyrimidine-2,4(3H,8H)-dione] | ≥ 70 | – | ≥ 70
5 | O=c1nc2n(Cc3cnc(Cl)nc3)cccc-2c(=O)n1-c1ccc(F)c(Cl)c1 [Compound 154, 3-(3-chloro-4-fluorophenyl)-8-((2-chloropyrimidin-5-yl)methyl)pyrido[2,3-d]pyrimidine-2,4(3H,8H)-dione] | ≥ 70 | ≥ 70 | ≥ 70
6 | COc1cc(-n2c(=O)nc3n(Cc4cnc(Cl)nc4)cccc-3c2=O)ccc1Cl [Compound 171, 3-(4-chloro-3-methoxyphenyl)-8-((2-chloropyrimidin-5-yl)methyl)pyrido[2,3-d]pyrimidine-2,4(3H,8H)-dione] | ≥ 70 | ≥ 70 | –
7 | O=c1nc2n(Cc3ccc(C(F)(F)F)nc3)cccc-2c(=O)n1-c1ccc(Cl)cc1 [Compound 145, 3-(4-chlorophenyl)-8-((6-(trifluoromethyl)pyridin-3-yl)methyl)pyrido[2,3-d]pyrimidine-2,4(3H,8H)-dione] | ≥ 70 | – | –
8 | O=c1nc2n(Cc3ccc(Cl)nc3)cccc-2c(=O)n1-c1cc(Cl)cc(C(F)(F)F)c1 [Compound 109, 3-(3-chloro-5-(trifluoromethyl)phenyl)-8-((6-chloropyridin-3-yl)methyl)pyrido[2,3-d]pyrimidine-2,4(3H,8H)-dione] | ≥ 70 | ≥ 70 | ≥ 70
9 | O=c1nc2n(Cc3ccc(C(F)(F)F)nc3)cccc-2c(=O)n1-c1ccc(F)cc1 [Compound 156, 3-(4-fluorophenyl)-8-((6-(trifluoromethyl)pyridin-3-yl)methyl)pyrido[2,3-d]pyrimidine-2,4(3H,8H)-dione] | ≥ 70 | – | –
10 | O=c1nc2n(Cc3cnc(Cl)s3)cccc-2c(=O)n1-c1cccc(C(F)(F)F)c1 [Compound 88, 8-((2-chlorothiazol-5-yl)methyl)-3-(3-(trifluoromethyl)phenyl)pyrido[2,3-d]pyrimidine-2,4(3H,8H)-dione] | ≥ 70 | ≥ 70 | ≥ 70
11 | O=c1nc2n(Cc3ccc(Cl)nc3)cccc-2c(=O)n1-c1cccc(SC(F)(F)F)c1 [Compound 246, 8-((6-chloropyridin-3-yl)methyl)-3-(3-((trifluoromethyl)thio)phenyl)pyrido[2,3-d]pyrimidine-2,4(3H,8H)-dione] | ≥ 70 | ≥ 70 | ≥ 70
12 | O=c1nc2n(Cc3cnc(Cl)s3)cccc-2c(=O)n1-c1ccc(F)c(C(F)(F)F)c1 [Compound 242, 8-((2-chlorothiazol-5-yl)methyl)-3-(4-fluoro-3-(trifluoromethyl)phenyl)pyrido[2,3-d]pyrimidine-2,4(3H,8H)-dione] | ≥ 70 | ≥ 70 | ≥ 70
13 | O=c1c2cccn(Cc3ccc(Cl)nc3)c-2nc(=S)n1-c1ccc(OC(F)(F)F)cc1 [Compound 209, 8-((6-chloropyridin-3-yl)methyl)-2-thioxo-3-(4-(trifluoromethoxy)phenyl)-2,8-dihydropyrido[2,3-d]pyrimidin-4(3H)-one] | ≥ 70 | ≥ 70 | –
14 | O=c1nc2n(Cc3cnc(Cl)nc3)cccc-2c(=O)n1-c1ccc(Cl)c(C(F)(F)F)c1 [Compound 224, 3-(4-chloro-3-(trifluoromethyl)phenyl)-8-((2-chloropyrimidin-5-yl)methyl)pyrido[2,3-d]pyrimidine-2,4(3H,8H)-dione] | ≥ 70 | ≥ 70 | –
15 | O=c1nc2n(Cc3cnc(Cl)nc3)cccc-2c(=O)n1-c1cccc(Br)c1 [Compound 231, 3-(3-bromophenyl)-8-((2-chloropyrimidin-5-yl)methyl)pyrido[2,3-d]pyrimidine-2,4(3H,8H)-dione] | ≥ 70 | ≥ 70 | ≥ 70
16 | O=c1nc2n(Cc3ccc(Cl)nc3)cccc-2c(=O)n1-c1ccc(OCC(F)(F)F)cc1 [Compound 223, 8-((6-chloropyridin-3-yl)methyl)-3-(4-(2,2,2-trifluoroethoxy)phenyl)pyrido[2,3-d]pyrimidine-2,4(3H,8H)-dione] | ≥ 70 | ≥ 70 | ≥ 70
17 | O=c1nc2n(Cc3cnc(Cl)nc3)cccc-2c(=O)n1-c1cccc(OC(F)(F)F)c1 [Compound 130, 8-((2-chloropyrimidin-5-yl)methyl)-3-(3-(trifluoromethoxy)phenyl)pyrido[2,3-d]pyrimidine-2,4(3H,8H)-dione] | ≥ 70 | ≥ 70 | –
18 | O=c1nc2n(Cc3ccc(Cl)nc3)cccc-2c(=O)n1-c1cc(C(F)(F)F)cc(C(F)(F)F)c1 [Compound 107, 3-(3,5-bis(trifluoromethyl)phenyl)-8-((6-chloropyridin-3-yl)methyl)pyrido[2,3-d]pyrimidine-2,4(3H,8H)-dione] | ≥ 70 | – | ≥ 70
19 | O=c1nc2n(Cc3cnc(Cl)nc3)cccc-2c(=O)n1-c1cc(F)cc(C(F)(F)F)c1 [Compound 244, 8-((2-chloropyrimidin-5-yl)methyl)-3-(3-fluoro-5-(trifluoromethyl)phenyl)pyrido[2,3-d]pyrimidine-2,4(3H,8H)-dione] | ≥ 70 | ≥ 70 | ≥ 70
20 | O=c1nc2n(Cc3cnc(Cl)nc3)cccc-2c(=O)n1-c1cc(F)cc(F)c1 [Compound 140, 8-((2-chloropyrimidin-5-yl)methyl)-3-(3,5-difluorophenyl)pyrido[2,3-d]pyrimidine-2,4(3H,8H)-dione] | ≥ 70 | ≥ 70 | ≥ 70
21 | COc1cc(-n2c(=O)nc3n(Cc4cnc(Cl)s4)cccc-3c2=O)ccc1Cl [Compound 167, 3-(4-chloro-3-methoxyphenyl)-8-((2-chlorothiazol-5-yl)methyl)pyrido[2,3-d]pyrimidine-2,4(3H,8H)-dione] | ≥ 70 | – | –
22 | CC(C)n1c(=O)nc2n(Cc3cnc(Cl)nc3)cccc-2c1=O [Compound 84, 8-((2-chloropyrimidin-5-yl)methyl)-3-isopropylpyrido[2,3-d]pyrimidine-2,4(3H,8H)-dione] | ≥ 70 | – | ≥ 70
23 | Cn1cc(-n2c(=O)nc3n(Cc4cnc(Cl)s4)cccc-3c2=O)cn1 [Compound 89, 8-((2-chlorothiazol-5-yl)methyl)-3-(1-methyl-1H-pyrazol-4-yl)pyrido[2,3-d]pyrimidine-2,4(3H,8H)-dione] | ≥ 70 | – | ≥ 70
24 | O=c1nc2n(Cc3ccc(Cl)nc3)cccc-2c(=O)n1-c1ccc(OC(F)(F)F)cc1 [Compound 126, 8-((6-chloropyridin-3-yl)methyl)-3-(4-(trifluoromethoxy)phenyl)pyrido[2,3-d]pyrimidine-2,4(3H,8H)-dione] | ≥ 70 | – | ≥ 70
25 | Cc1ccc(-n2c(=O)nc3n(Cc4cnc(Cl)nc4)cccc-3c2=O)cc1 [Compound 144, 8-((2-chloropyrimidin-5-yl)methyl)-3-(p-tolyl)pyrido[2,3-d]pyrimidine-2,4(3H,8H)-dione] | ≥ 70 | – | –
26 | O=c1nc2n(Cc3cnc(Cl)nc3)cccc-2c(=O)n1-c1ccc(OC(F)(F)F)c(Cl)c1 [Compound 227, 3-(3-chloro-4-(trifluoromethoxy)phenyl)-8-((2-chloropyrimidin-5-yl)methyl)pyrido[2,3-d]pyrimidine-2,4(3H,8H)-dione] | ≥ 70 | – | –
27 | O=c1nc2n(Cc3cnc(Cl)nc3)cccc-2c(=O)n1-c1ccc(Cl)cc1F [Compound 147, 3-(4-chloro-2-fluorophenyl)-8-((2-chloropyrimidin-5-yl)methyl)pyrido[2,3-d]pyrimidine-2,4(3H,8H)-dione] | ≥ 70 | ≥ 70 | –
